Reference: paper PMC11747885, “Potent inhibitors of the human RNA ligase Rlig1 highlights its role in RNA integrity maintenance under oxidative cellular stress” (Chemical Science, 2025)
Values after ≈ are worked out from the molar mass of the structure shown. Values joined by “and” are separate entries in the source; they are usually repeats but may differ in a detail not shown here. Equal values may be shown once. “Also recorded” adds a separate entry of the source. Read-outs that look alike come from different tables or passages of the source. Marks after values point to notes of the source that are not given here.

What was measured:
Rlig1-AMP [1] = biological target: T1, Rlig1-AMP (Homo sapiens, UniProt Q8N999); assay: FRET-based high-throughput screening of inhibitors for Rlig1-AMP; type: biochemical; conditions: sheet HTS hits; for 1-D Distance: difference of raw data w/o and w enzyme; for Raw data [w Enyzm]: with enzyme; for Raw data [w/o Enzym]: without enzyme; for 1-D Distance.npi: MedChemExpress library
T1 construct: made in house; host or cells: E. coli BL21 (DE3), pET15b-Rlig1

[2] = ref MedChemExpress, cited from earlier work; for solubility, DMSO: in DMSO; for solubility, H2O: in H2O
Rlig1-AMP [3] = biological target: T1, Rlig1-AMP; assay: Radioactive RNA ligation assay (hit validation, 10 µM test and IC50 determination); type: biochemical; conditions: for IC50: n = 3
[4] = Cell viability assay of HEK293 cells treated with inhibitors and menadione; type: cell-based, human; conditions: human, HEK293 cells, w/o Menadione; for viability at 7.5 µM: 7.5 µM compound; for viability at 15 µM: 15 µM compound; for viability at 30 µM: 30 µM compound; for viability at 60 µM: 60 µM compound
HEK293 cells [5] = assay: as above; type: cell-based, human; conditions: for Mean Diff, (Predicted (LS) mean diff,) w/o menadione - w menadione: 2 way ANOVA, Šídák's multiple comparisons test, normalised viability
in vitro = conditions: human
HEK293 cells [6] = assay: Cell viability assay of HEK293 cells treated with inhibitors (CellTiter-Glo)
[7] = log(inhibitor) vs. response, variable slope (four parameters)
[8] = 20240508 plate 012, DMSO Ko no Mendione = 100
[9] = 20240508 plate 013, DMSO Ko no Mendione = 100
[10] = 20240515 plate 014, DMSO Ko no Mendione = 100
[11] = 20240515 plate 015, DMSO Ko no Mendione = 100

T1 sequence (Q8N999 whole entry): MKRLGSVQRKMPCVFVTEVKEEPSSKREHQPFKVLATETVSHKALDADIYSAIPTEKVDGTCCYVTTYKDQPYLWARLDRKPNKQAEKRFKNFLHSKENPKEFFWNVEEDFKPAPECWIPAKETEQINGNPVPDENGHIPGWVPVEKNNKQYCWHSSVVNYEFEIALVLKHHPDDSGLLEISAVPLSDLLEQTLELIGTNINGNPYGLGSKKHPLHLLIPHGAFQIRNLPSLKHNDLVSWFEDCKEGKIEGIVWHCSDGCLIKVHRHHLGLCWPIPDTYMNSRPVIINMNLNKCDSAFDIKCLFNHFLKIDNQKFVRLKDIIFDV

COC(=O)c1cc(OC)c2c(c1-c1c(C(=O)OC)cc(OC)c3c1OCO3)OCO2 [Bifendate]
1-D Distance (Rlig1-AMP [1]): 1790 | Raw data [w Enyzm] (Rlig1-AMP [1]): 9076 | Raw data [w/o Enzym] (Rlig1-AMP [1]): 10866 | solubility, DMSO [2]: 50 mg/mL (≈ 120 mM) | solubility, H2O [2]: 1 mg/mL (≈ 2.39 mM)

CCCCCCCCCCCCCCCC[n+]1ccccc1.O.[Cl-] [Cetylpyridinium (chloride monohydrate)]
solubility, DMSO [2]: 20 mg/mL | solubility, H2O [2]: ≥ 100 mg/mL

CCCCCCCCCCCCCCCC[n+]1ccccc1.[Cl-] [Cetylpyridinium (chloride)]
solubility, DMSO [2]: DMSO : 100 mg/mL (294.13 mM; Need ultrasonic); H2O : 100 mg/mL (294.13 mM; Need ultrasonic) | solubility, H2O [2]: DMSO : 100 mg/mL (294.13 mM; Need ultrasonic); H2O : 100 mg/mL (294.13 mM; Need ultrasonic)

Cc1cc(Nc2ccc(NC(=O)c3ccc(Nc4ncnc5ccccc45)cc3)cc2)nc(N)n1 [Compound 45]
inhibition of Rlig1-AMP ligation (urea-PAGE) (Rlig1-AMP [3]; 10 μM compound, 500 nM Rlig1-AMP, 20 min 37 °C): Ligation was inhibited; also recorded: inhibited ligase activity | HillSlope (best-fit value) (Rlig1-AMP [3]; four-parameter fit): 4.095 | Span (best-fit value) (Rlig1-AMP [3]; four-parameter fit): 90.88 | IC50 (Rlig1-AMP [3]; four-parameter fit, read-out: IC50 (best-fit value)): 7.02 µM | inhibition at 30 µM (Rlig1-AMP [3]; log Compound [µM] 1.47712, replicates I-III, read-out: percentage inhibition (dose response curve for IC50)): 100% | LogIC50 (best-fit value) (Rlig1-AMP [3]; log of µM, four-parameter fit): 0.8461 | Bottom (best-fit value) (Rlig1-AMP [3]; [7]): 7.303 | Top (best-fit value) (Rlig1-AMP [3]; [7]): 98.18 | IC50 (Rlig1-AMP [3]; radioactive ligation assay, 500 nM Rlig1-AMP, 20 min 37 °C, read-out: IC50): 7.02 µM | viability at 7.5 µM [4, 8]: 99.2% | viability at 7.5 µM [4, 9]: 99.9% | viability at 7.5 µM [4, 10]: 95.1% | viability at 7.5 µM [4, 11]: 102% | viability at 15 µM [4, 8]: 95.2% | viability at 15 µM [4, 9]: 92.3% | viability at 15 µM [4, 10]: 81.5% | viability at 15 µM [4, 11]: 84.3% | viability at 30 µM [4, 8]: 80.9% | viability at 30 µM [4, 9]: 93.3% | viability at 30 µM [4, 10]: 67.5% | viability at 30 µM [4, 11]: 77.5% | viability at 60 µM [4, 10]: 61.3% | viability at 60 µM [4, 11]: 65.6% | Mean Diff, (Predicted (LS) mean diff,) w/o menadione - w menadione (HEK293 cells [5]; 7.5 µM compound): 24.88 | Cell viability raw signal, technical replicates (HEK293 cells [5]; 7.5 µM compound, w Menadione (40µM), 20240508 plate 012): 16292 and 19945 and 19668 and 21930 | Cell viability raw signal, technical replicates (HEK293 cells [5]; 7.5 µM compound, w Menadione (40µM), 20240508 plate 013): 13213 and 13818 and 17967 and 18789 | Cell viability raw signal, technical replicates (HEK293 cells [5]; 7.5 µM compound, w Menadione (40µM), 20240515 plate 014): 24555 and 24471 and 26313 and 33654 | Cell viability raw signal, technical replicates (HEK293 cells [5]; 7.5 µM compound, w Menadione (40µM), 20240515 plate 015): 35092 and 33991 and 36306 and 39027 | Cell viability raw signal, technical replicates (HEK293 cells [5]; 7.5 µM compound, w/o Menadione, 20240508 plate 012): 424180 and 398710 and 420300 and 419520 | Cell viability raw signal, technical replicates (HEK293 cells [5]; 7.5 µM compound, w/o Menadione, 20240508 plate 013): 399000 and 385630 and 399650 and 394170 | Cell viability raw signal, technical replicates (HEK293 cells [5]; 7.5 µM compound, w/o Menadione, 20240515 plate 014): 359950 and 358800 and 374740 and 459430 | Cell viability raw signal, technical replicates (HEK293 cells [5]; 7.5 µM compound, w/o Menadione, 20240515 plate 015): 358750 and 400730 and 451820 and 450580 | Mean Diff, (Predicted (LS) mean diff,) w/o menadione - w menadione (HEK293 cells [5]; 15 µM compound): 16.86 | Cell viability raw signal, technical replicates (HEK293 cells [5]; 15 µM compound, w Menadione (40µM), 20240508 plate 012): 17222 and 18766 and 16741 and 22933 | Cell viability raw signal, technical replicates (HEK293 cells [5]; 15 µM compound, w Menadione (40µM), 20240508 plate 013): 19848 and 20626 and 16969 and 23253 | Cell viability raw signal, technical replicates (HEK293 cells [5]; 15 µM compound, w Menadione (40µM), 20240515 plate 014): 32272 and 27116 and 27955 and 28425 | Cell viability raw signal, technical replicates (HEK293 cells [5]; 15 µM compound, w Menadione (40µM), 20240515 plate 015): 25226 and 26073 and 29252 and 24387 | Cell viability raw signal, technical replicates (HEK293 cells [5]; 15 µM compound, w/o Menadione, 20240508 plate 012): 374870 and 367440 and 401070 and 451770 | Mean Diff, (Predicted (LS) mean diff,) w/o menadione - w menadione (HEK293 cells [5]; 30 µM compound): 21.74 | Cell viability raw signal, technical replicates (HEK293 cells [5]; 30 µM compound, w Menadione (40µM), 20240508 plate 012): 97659* and 121480* and 17759 and 18485 | Cell viability raw signal, technical replicates (HEK293 cells [5]; 30 µM compound, w Menadione (40µM), 20240508 plate 013): 90653* and 101750* and 11751 and 20016 | Cell viability raw signal, technical replicates (HEK293 cells [5]; 30 µM compound, w Menadione (40µM), 20240515 plate 014): 23460 and 20263 and 23532 and 25800 | Cell viability raw signal, technical replicates (HEK293 cells [5]; 30 µM compound, w Menadione (40µM), 20240515 plate 015): 18936 and 15616 and 21631 and 19990 | Cell viability raw signal, technical replicates (HEK293 cells [5]; 30 µM compound, w/o Menadione, 20240508 plate 012): 326400 and 344550 and 324690 and 360730 | Cell viability raw signal, technical replicates (HEK293 cells [5]; 30 µM compound, w/o Menadione, 20240508 plate 013): 380950 and 384250 and 337920 and 371050 | Cell viability raw signal, technical replicates (HEK293 cells [5]; 30 µM compound, w/o Menadione, 20240515 plate 014): 277620 and 270780 and 277750 and 275770 | Cell viability raw signal, technical replicates (HEK293 cells [5]; 30 µM compound, w/o Menadione, 20240515 plate 015): 297120 and 296520 and 307370 and 366230 | Mean Diff, (Predicted (LS) mean diff,) w/o menadione - w menadione (HEK293 cells [5]; 60 µM compound): 16.46 | Cell viability raw signal, technical replicates (HEK293 cells [5]; 60 µM compound, w Menadione (40µM), 20240515 plate 014): 18908 and 18178 and 17095 and 16101 | Cell viability raw signal, technical replicates (HEK293 cells [5]; 60 µM compound, w Menadione (40µM), 20240515 plate 015): 15825 and 18398 and 15296 and 15572 | Cell viability raw signal, technical replicates (HEK293 cells [5]; 60 µM compound, w/o Menadione, 20240515 plate 014): 265840 and 239610 and 250590 and 244440 | Cell viability raw signal, technical replicates (HEK293 cells [5]; 60 µM compound, w/o Menadione, 20240515 plate 015): 267940 and 266670 and 268950 and 268790 | viability at 24 h, 0.234375 µM (in vitro): 110% | viability at 24 h, 0.46875 µM (in vitro): 101% | viability at 24 h, 0.9375 µM (in vitro): 105% | viability at 24 h, 1.875 µM (in vitro): 100% | viability at 24 h, 3.75 µM (in vitro): 103% | viability at 24 h, 7.5 µM (in vitro): 97.1% | viability at 24 h, 15 µM (in vitro): 90.2% | viability at 24 h, 30 µM (in vitro): 88.8% | cytotoxicity (in words) (HEK293 cells [6]; HEK293, 24 h, up to 30 μM): no detectable cytotoxicity | IC50 (Figure 3D: EC50 values for plot; log(inhibitor) vs. response -- Variable slope (four parameters)) (HEK293 cells [6]; HEK293 cell viability, fit per plate (3 plates, 4 technical replicates each), highest tested concentration 30 µM): 336.896 µM and 119.897 µM and 368.238 µM | LogIC50 (log(inhibitor) vs. response -- Variable slope (four parameters)) (HEK293 cells [6]; HEK293 cell viability, fit per plate (3 plates, 4 technical replicates each), log of [µM]): 2.5275 and 2.079 and 2.566 | EC50 (HEK293 cells [6]; Homo sapiens, HEK293, 24 h): > 30 µM

COc1cccc2c1C(=O)c1c(O)c3c(c(O)c1C2=O)C[C@@](O)(C(C)=O)C[C@@H]3O[C@H]1C[C@H](N)[C@H](O)[C@H](C)O1.Cl [Daunorubicin (hydrochloride)]
1-D Distance.npi (Rlig1-AMP [1]): 94.9773 | 1-D Distance (Rlig1-AMP [1]): 667 | Raw data [w Enyzm] (Rlig1-AMP [1]): 1522 | Raw data [w/o Enzym] (Rlig1-AMP [1]): 2189 | solubility, DMSO [2]: 50 mg/mL | solubility, H2O [2]: ≥ 34 mg/mL

C[C@]12C=CC(=O)N[C@@H]1CC[C@@H]1[C@@H]2CC[C@]2(C)[C@@H](C(=O)Nc3cc(C(F)(F)F)ccc3C(F)(F)F)CC[C@@H]12 [Dutasteride]
1-D Distance (Rlig1-AMP [1]): 1706 | Raw data [w Enyzm] (Rlig1-AMP [1]): 9054 | Raw data [w/o Enzym] (Rlig1-AMP [1]): 10760 | solubility, DMSO [2]: DMSO : 33.33 mg/mL (63.06 mM; Need ultrasonic)

CC1=NN(c2ccc(C)c(C)c2)C(=O)/C1=N\Nc1cccc(-c2cccc(C(=O)O)c2)c1O [Eltrombopag]
1-D Distance (Rlig1-AMP [1]): 1388 | Raw data [w Enyzm] (Rlig1-AMP [1]): 3742 | Raw data [w/o Enzym] (Rlig1-AMP [1]): 5130 | solubility, DMSO [2]: 8.33 mg/mL (≈ 18.8 mM) | solubility, H2O [2]: < 0.1 mg/mL

COC(=O)/C=C/c1ccc(O)c(O)c1 [Methyl caffeate]
1-D Distance (Rlig1-AMP [1]): 1343 | Raw data [w Enyzm] (Rlig1-AMP [1]): 9476 | Raw data [w/o Enzym] (Rlig1-AMP [1]): 10819 | solubility, DMSO [2]: DMSO : 33.33 mg/mL (171.64 mM; ultrasonic and warming and heat to 60°C)

[N-]=[N+]=NCCOCCOCCOCCN(CCOCCOCCN)CCOCCOCCOCCN=[N+]=[N-] [N-(Amino-PEG2)-N-bis(PEG3-azide)]
1-D Distance.npi (Rlig1-AMP [1]): 72.3118 | 1-D Distance (Rlig1-AMP [1]): 1919 | Raw data [w Enyzm] (Rlig1-AMP [1]): 9036 | Raw data [w/o Enzym] (Rlig1-AMP [1]): 10955 | solubility, DMSO [2]: DMSO : 100 mg/mL (181.60 mM; Need ultrasonic)
